The source of these data is patent US8664257B2, “Oxygen-substituted 3-heteroaroylamino-propionic acid derivatives and their use as pharmaceuticals” (Sanofi, priority 2010, dated 2014).

pIC50: −log10 of the molar value.

What is called pIC50 is the IC50 on a negative log10 scale, so that one unit is a factor of ten.

In the first assay the target is T1, Recombinant human cathepsin A (Homo sapiens, UniProt P10619).
T1 construct: Recombinant human cathepsin A (residues 29-480, with a C-terminal 10-His tag); 10-His (C); purchased R&D Systems 1049-SE
T1 sequence (P10619 29-312 limits assumed): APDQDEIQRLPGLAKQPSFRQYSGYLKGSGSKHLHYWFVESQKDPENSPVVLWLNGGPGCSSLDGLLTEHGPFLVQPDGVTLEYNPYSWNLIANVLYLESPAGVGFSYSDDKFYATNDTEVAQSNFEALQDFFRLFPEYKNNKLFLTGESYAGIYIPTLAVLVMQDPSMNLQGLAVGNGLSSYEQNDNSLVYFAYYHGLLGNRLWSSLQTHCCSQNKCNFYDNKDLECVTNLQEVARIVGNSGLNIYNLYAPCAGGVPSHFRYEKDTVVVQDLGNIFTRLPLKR
T1 sequence (P10619 327-480 limits assumed): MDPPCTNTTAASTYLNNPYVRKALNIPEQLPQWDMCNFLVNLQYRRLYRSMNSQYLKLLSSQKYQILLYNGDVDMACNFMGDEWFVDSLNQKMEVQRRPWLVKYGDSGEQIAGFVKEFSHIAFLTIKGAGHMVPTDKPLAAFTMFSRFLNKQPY
Put plainly: Cathepsin A inhibitory activity. Conditions: pharmacological test "Cathepsin A inhibitory activity"; IC50 given as class A/B/C; read-out: Activity (2): Cathepsin A inhibitory activity, IC50 class. The format is biochemical. A digest of the protocol: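 Read-out was microfluidic separation of cleaved vs. uncleaved Bodipy FL-bradykinin (2 μM), giving turnover, % inhibition and IC50. Compound and 833 ng/ml enzyme met for 15 min RT in pH 5.5 MES/DTT before substrate (15 min RT). The 29-480 His-tagged human enzyme was first activated by cathepsin L, then E-64 (10 μM).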
For the compound `O=C(O)CC(NC(=O)c1cc(O)n(-c2ccc(F)cc2F)n1)c1cccc(Cl)c1F` (centres unmarked) [Example 192], the pIC50 is 6.00 to 7.00.
`O=C(O)C[C@H](NC(=O)c1cc(O)n(-c2ccccc2F)n1)c1ccc(F)cc1` [Example 236]: the pIC50 was 6.00 to 7.00.
The same measure, in the same setting: then `COc1ccc([C@H](CC(=O)O)NC(=O)c2cc(O)n(-c3ccccc3Cl)n2)cn1` [Example 139], with 6.00 to 7.00.
Same read-out and setting: then `Cc1cc(F)ccc1C(CC(=O)O)NC(=O)c1cc(O)n(-c2ccccc2F)n1` (centres unmarked) [Example 248], with 6.00 to 7.00; and `O=C(O)CC(NC(=O)c1cc(O)n(-c2ccccc2Cl)n1)c1cccc(C(F)(F)F)c1F` (centres unmarked) [Example 221, 3-{[1-(2-Chloro-phenyl)-5-hydroxy-1H-pyrazole-3-carbonyl]-amino}-3-(2-fluoro-3-trifluoromethyl-phenyl)-propionic acid], with 6.00 to 7.00.

The assay is the same for the next values; noted with them: read-out: Activity (2): Cathepsin A inhibitory activity (IC50 class).
In the case of `CCOc1cc(C(=O)NC(CC(=O)O)c2cccc(F)c2C)nn1-c1ccccc1Cl` (centres unmarked) [Example 725], the pIC50 was above 7.00.
Turning to `COc1c(C)c(C(=O)NC(CC(=O)O)c2ccccc2C)nn1-c1ccccc1F` (centres unmarked) [Example 605], the negative logarithm of the IC50 (pIC50) was 4.52 to 6.00.
Turning to `CCOc1cc(C(=O)N[C@@H](CC(=O)O)c2ccc(C(F)(F)F)cc2)nn1-c1ccccc1Cl` [Example 735], the pIC50 is 6.00 to 7.00.
Consider `Cc1ccccc1[C@H](CC(=O)O)NC(=O)c1cc(OCCc2c(C)noc2C)n(-c2ccccc2F)n1` [Example 628], for which the pIC50 is above 7.00.
The same measure, in the same setting: then `CCOc1cc(C(=O)N[C@@H](CC(=O)O)c2ccc(C)cc2)nn1-c1ccccc1Cl` [Example 736], with above 7.00; and `Cc1ccc(C(CC(=O)O)NC(=O)c2cc(OCC3CC3)n(-c3ccccc3F)n2)c(C)c1` (centres unmarked) [Example 686], with above 7.00; and `O=C(O)CC(NC(=O)c1cc(O)n(-c2ccccc2Cl)n1)c1ccc(-c2cccc(Cl)c2)cc1` (centres unmarked) [Example 540], with 6.00 to 7.00.
In the case of `O=C(O)CC(NC(=O)c1cc(O)n(-c2ccccc2)n1)c1ccc(-c2ccccc2Cl)cc1` (centres unmarked) [Example 539], the negative logarithm of the IC50 (pIC50) is 6.00 to 7.00.
For `COc1cc(C(=O)N[C@@H](CC(=O)O)c2ccccc2C)nn1-c1ccccc1Cl` [Example 608], the pIC50 is 6.00 to 7.00.
As to `COc1cc(C(=O)N[C@@H](CC(=O)O)c2ccccc2C)nn1-c1cc(F)ccc1F` [Example 610], the pIC50 is above 7.00.
Turning to `CCCCCCOc1cc(C(=O)N[C@@H](CC(=O)O)c2ccccc2C)nn1-c1ccccc1F` [Example 660], the pIC50 was above 7.00.
On the same count and under the same terms, under `COc1ccc(-c2ccccc2)cc1C(CC(=O)O)NC(=O)c1cc(O)n(-c2ccccc2Cl)n1` (centres unmarked) [Example 562, 3-{[1-(2-Chloro-phenyl)-5-hydroxy-1H-pyrazole-3-carbonyl]-amino}-3-(4-methoxy-biphenyl-3-yl)-propionic acid] stands 4.52 to 6.00.

Still in this assay, the particulars now being: read-out: Activity (2): Cathepsin A inhibitory activity, IC50 class.
With `COc1ccccc1[C@H](CC(=O)O)NC(=O)c1cc(O)n(-c2ccccc2F)n1` [Example 122], the negative-log IC50 (pIC50) is 6.00 to 7.00.
In the case of `Cc1ccc(C)c(C(CC(=O)O)NC(=O)c2cc(O)n(-c3ccc(F)cc3)n2)c1` (centres unmarked) [Example 359], the pIC50 is 4.52 to 6.00.
Regarding `O=C(O)CC(NC(=O)c1cc(O)n(-c2ccccc2)n1)c1cccc(F)c1` (centres unmarked) [Example 63], the pIC50 was 4.52 to 6.00.
Still for that read-out and setting: under `COc1ccc(C(CC(=O)O)NC(=O)c2cc(O)n(-c3ccc(Cl)cc3)n2)c(OC)c1` (centres unmarked) [Example 273] stands 4.52 to 6.00; under `O=C(O)CC(NC(=O)c1cc(O)n(-c2cccc(F)c2)n1)c1cccc(Cl)c1` (centres unmarked) [Example 301], 6.00 to 7.00; under `O=C(O)C[C@H](NC(=O)c1cc(O)n(-c2ccc(F)cc2)n1)c1cccc(F)c1` [Example 349], 6.00 to 7.00.
As to `Cc1ccc([C@H](CC(=O)O)NC(=O)c2cc(OC[C@](C)(O)C(C)C)n(-c3ccccc3F)n2)c(C)c1` [Example 859, (S)-3-(2,4-Dimethyl-phenyl)-3-{[1-(2-fluoro-phenyl)-5-((R)-2-hydroxy-2,3-dimethyl-butoxy)-1H-pyrazole-3-carbonyl]-amino}-propionic acid], the pIC50 was above 7.00.
Take `O=C(O)CC(NC(=O)c1cc(O)n(-c2ccccc2Cl)n1)c1ccc(Oc2ccccc2)cc1` (centres unmarked) [Example 113]: the pIC50 was 6.00 to 7.00.
The same measure, in the same setting: under `CC(C)[C@](C)(O)COc1cc(C(=O)N[C@@H](CC(=O)O)c2ccc(F)cc2)nn1-c1ccccc1F` [Example 872, (S)-3-(4-Fluoro-phenyl)-3-{[1-(2-fluoro-phenyl)-5-((S)-2-hydroxy-2,3-dimethyl-butoxy)-1H-pyrazole-3-carbonyl]-amino}-propionic acid] stands 6.00 to 7.00.
On to `COc1ccc(C(CC(=O)O)NC(=O)c2cc(O)n(-c3cccc(F)c3)n2)c(Cl)c1` (centres unmarked) [Example 310], for which the pIC50 is 6.00 to 7.00.
Turning to `CCc1ccc(C(CC(=O)O)NC(=O)c2cc(O)n(-c3ccccc3F)n2)cc1` (centres unmarked) [Example 134], the negative-log IC50 (pIC50) was 6.00 to 7.00.
The same measure, in the same setting: under `CC(C)[C@](C)(O)COc1cc(C(=O)N[C@@H](CC(=O)O)c2ccccc2F)nn1-c1ccccc1F` [Example 835, (S)-3-(2-Fluoro-phenyl)-3-{[1-(2-fluoro-phenyl)-5-((S)-2-hydroxy-2,3-dimethyl-butoxy)-1H-pyrazole-3-carbonyl]-amino}-propionic acid] stands above 7.00.
Take `Cc1cccc(C(CC(=O)O)NC(=O)c2cc(O)n(-c3ccc(Cl)cc3)n2)c1C` (centres unmarked) [Example 287]: the pIC50 was 6.00 to 7.00.
Turning to `O=C(O)C[C@H](NC(=O)c1cc(O)n(-c2ccc(Cl)cc2)n1)c1ccccc1F` [Example 293], the pIC50 was 4.52 to 6.00.
Consider `CC(C)(C)[C@](C)(O)COc1cc(C(=O)N[C@@H](CC(=O)O)c2ccc(F)cc2)nn1-c1ccccc1F` [Example 880, (S)-3-(4-Fluoro-phenyl)-3-{[1-(2-fluoro-phenyl)-5-((S)-2-hydroxy-2,3,3-trimethyl-butoxy)-1H-pyrazole-3-carbonyl]-amino}-propionic acid], for which the pIC50 is above 7.00.
For `O=C(O)CC(NC(=O)c1cc(O)n(-c2ccc(Cl)cc2)n1)c1cccc(Cl)c1Cl` (centres unmarked) [Example 281], the pIC50 is 6.00 to 7.00.
Same read-out and setting: under `Cc1ccccc1[C@H](CC(=O)O)NC(=O)c1cc(O)n(-c2cccc(Cl)c2)n1` [Example 75] stands 6.00 to 7.00; under `COc1ccc(Cl)cc1C(CC(=O)O)NC(=O)c1cc(O)n(-c2ccc(Cl)cc2)n1` (centres unmarked) [Example 275], 4.52 to 6.00.

Staying with this assay, now noted: recombinant human cathepsin A 833 ng/ml, Bodipy FL-labeled bradykinin 2 μM, pH 5.5; read-out: CATH-A IC50.
For the compound `Cc1ccc([C@H](CC(=O)O)NC(=O)c2cc(O)n(-c3cccc(Cl)c3)n2)cc1` [Example 512, (S)-3-{[1-(3-Chloro-phenyl)-5-hydroxy-1H-pyrazole-3-carbonyl]-amino}-3-p-tolyl-propionic acid], the pIC50 was 6.81.
Same read-out and setting: then `O=C(O)CC(NC(=O)c1cc(O)n(-c2cccc(Cl)c2)n1)c1cc(F)ccc1Cl` (centres unmarked) [Example 509, 3-(2-Chloro-5-fluoro-phenyl)-3-{[1-(3-chloro-phenyl)-5-hydroxy-1H-pyrazole-3-carbonyl]-amino}-propionic acid], with 7.00; and `COc1ccc(-c2ccccc2)cc1C(CC(=O)O)NC(=O)c1cc(O)n(-c2ccccc2Cl)n1` (centres unmarked) [Example 562, 3-{[1-(2-Chloro-phenyl)-5-hydroxy-1H-pyrazole-3-carbonyl]-amino}-3-(4-methoxy-biphenyl-3-yl)-propionic acid], with 5.35.
`O=C(O)CC(NC(=O)c1cc(O)n(-c2ccccc2Cl)n1)c1cccc(C(F)(F)F)c1F` (centres unmarked) [Example 221, 3-{[1-(2-Chloro-phenyl)-5-hydroxy-1H-pyrazole-3-carbonyl]-amino}-3-(2-fluoro-3-trifluoromethyl-phenyl)-propionic acid]: the pIC50 was 6.49.
The same measure, in the same setting: then `COc1ccc(F)cc1C(CC(=O)O)NC(=O)c1cc(O)n(-c2ccccc2)n1` (centres unmarked) [Example 498, 3-(5-Fluoro-2-methoxy-phenyl)-3-[(5-hydroxy-1-phenyl-1H-pyrazole-3-carbonyl)-amino]-propionic acid], with 6.85; and `O=C(O)CC(NC(=O)c1cc(O)n(-c2cccc(Cl)c2)n1)c1cc(Cl)ccc1Cl` (centres unmarked) [Example 511, 3-{[1-(3-Chloro-phenyl)-5-hydroxy-1H-pyrazole-3-carbonyl]-amino}-3-(2,5-dichloro-phenyl)-propionic acid], with 6.99.

The assay is the same for the next values; noted with them: recombinant human cathepsin A; read-out: Activity (2): Cathepsin A inhibitory activity, IC50 class.
Turning to `COc1cc(C(=O)N[C@@H](CC(=O)Nc2cc(C)[nH]n2)c2ccccc2C)nn1-c1ccccc1F` [Example 923, 1-(2-Fluoro-phenyl)-5-methoxy-1H-pyrazole-3-carboxylic acid [(S)-2-(5-methyl-1H-pyrazol-3-ylcarbamoyl)-1-o-tolyl-ethyl]-amide], the pIC50 is 4.52 to 6.00.
On the same count and under the same terms, then `N#Cc1ccc([C@H](CC(=O)O)NC(=O)c2cc(O)n(-c3cccc(Cl)c3)n2)cc1` [Example 410], with 4.52 to 6.00; and `Cc1ccc([C@H](CC(=O)O)NC(=O)c2cc(O)n(-c3cccc(Cl)c3)n2)cc1` [Example 512, (S)-3-{[1-(3-Chloro-phenyl)-5-hydroxy-1H-pyrazole-3-carbonyl]-amino}-3-p-tolyl-propionic acid], with 6.00 to 7.00; and `COc1cc(C(=O)N[C@@H](CC(=O)Nc2cc(C)on2)c2ccccc2C)nn1-c1ccccc1F` [Example 932, 1-(2-Fluoro-phenyl)-5-methoxy-1H-pyrazole-3-carboxylic acid [(S)-2-(5-methyl-isoxazol-3-ylcarbamoyl)-1-o-tolyl-ethyl]-amide], with 6.00 to 7.00.
The same measure, in the same setting: then `O=C(O)CC(NC(=O)c1cc(O)n(-c2cccc(Cl)c2)n1)c1cc(F)ccc1Cl` (centres unmarked) [Example 509, 3-(2-Chloro-5-fluoro-phenyl)-3-{[1-(3-chloro-phenyl)-5-hydroxy-1H-pyrazole-3-carbonyl]-amino}-propionic acid], with 6.00 to 7.00; and `O=C(O)CC(NC(=O)c1cc(O)n(-c2ccccc2F)n1)c1cc(F)ccc1F` (centres unmarked) [Example 517], with 6.00 to 7.00.
For the compound `COc1ccc(F)cc1C(CC(=O)O)NC(=O)c1cc(O)n(-c2ccccc2)n1` (centres unmarked) [Example 498, 3-(5-Fluoro-2-methoxy-phenyl)-3-[(5-hydroxy-1-phenyl-1H-pyrazole-3-carbonyl)-amino]-propionic acid], the pIC50 is 6.00 to 7.00.
For the compound `O=C(O)CC(NC(=O)c1cc(O)n(-c2ccc(Cl)cc2)n1)c1ccc(-c2ccc(F)cc2)cc1` (centres unmarked) [Example 425], the pIC50 is 4.52 to 6.00.
On the same count and under the same terms, under `O=C(O)CC(NC(=O)c1cc(O)n(-c2cccc(Cl)c2)n1)c1cc(Cl)ccc1Cl` (centres unmarked) [Example 511, 3-{[1-(3-Chloro-phenyl)-5-hydroxy-1H-pyrazole-3-carbonyl]-amino}-3-(2,5-dichloro-phenyl)-propionic acid] stands 6.00 to 7.00.
